Here are results for 2 compounds from article PMC3048469 (FEBS letters, 2011).

The test concerns the target Rv1086 (Mycobacterium tuberculosis, UniProt P9WFF5). It counts as biochemical. To be noted: 5 mM MgCl2, pH 7.0, 37 °C.

Like-named read-outs stand apart in the source and are kept apart here.

Chain of Rv1086 (P9WFF5 whole entry): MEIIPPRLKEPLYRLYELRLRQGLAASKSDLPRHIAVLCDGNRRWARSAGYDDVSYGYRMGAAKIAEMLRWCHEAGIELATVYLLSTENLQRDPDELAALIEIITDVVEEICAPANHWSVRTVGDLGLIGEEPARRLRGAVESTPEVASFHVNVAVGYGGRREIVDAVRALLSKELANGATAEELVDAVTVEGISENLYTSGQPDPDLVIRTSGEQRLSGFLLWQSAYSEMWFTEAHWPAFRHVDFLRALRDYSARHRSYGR

Turning to `CC(C)=CCOP(=O)(O)OP(=O)(O)O` [DMAPP], where the note is “100 μM DMAPP, 100 μM IPP, 0.3% Triton X-100”, the “GC-MS of dephosphorylated product” value was “(Z,E)-FPP also was produced by Rv1086 from IPP and DMAPP in the absence of Rv0989”.

On to `CC(C)=CCC/C(C)=C/COP(=O)(O)OP(=O)(O)O` [GPP], for which the “GC-MS of dephosphorylated product” value (100 μM GPP, co-substrate IPP) is listed as “Rv1086 assayed in the presence of authentic GPP, GPP synthesized by Rv0989c, or DMAPP”.
